Earlier results in patent US10028927B2, “Topical pharmaceutical formulation” (Futura Medical Developments Limited, priority 2015, dated 2018).
Counter-ions that a name gives are not always drawn. Blank lines part the entries; values can stand above or below the compound they belong to.

How the values were obtained:
[1] = saturated systems in polyethylene glycol and propylene glycol
[2] = in vivo

diclofenac flux, polyethylene glycol versus propylene glycol systems [1]: no significant difference | saturated solubility in polyethylene glycol (polyethylene glycol): 11.18 % w/w | saturated solubilities in propanol or iso-propanol (propanol or iso-propanol): 3-4% | saturated solubility in pure ethanol (pure ethanol): 5 % w/w
SMILES: O=C(O)Cc1ccccc1Nc1c(Cl)cccc1Cl [diclofenac acid]

SMILES: O=C(O)Cc1ccccc1Nc1c(Cl)cccc1Cl [diclofenac]
systemic clearance compared with other drugs [2]: more rapid systemic clearance compared with other drugs

saturated solubility in propylene glycol (propylene glycol): approximately 50 % w/w
SMILES: O=C(O)Cc1ccccc1Nc1c(Cl)cccc1Cl [sodium salt of diclofenac acid, diclofenac sodium]
